Entries after “also recorded” stand apart in the source; their conditions may differ.
Target: T1, human androgen receptor (Homo sapiens, UniProt P10275)
T1 construct: expressed in transfected cells
T1 sequence (P10275 1-920): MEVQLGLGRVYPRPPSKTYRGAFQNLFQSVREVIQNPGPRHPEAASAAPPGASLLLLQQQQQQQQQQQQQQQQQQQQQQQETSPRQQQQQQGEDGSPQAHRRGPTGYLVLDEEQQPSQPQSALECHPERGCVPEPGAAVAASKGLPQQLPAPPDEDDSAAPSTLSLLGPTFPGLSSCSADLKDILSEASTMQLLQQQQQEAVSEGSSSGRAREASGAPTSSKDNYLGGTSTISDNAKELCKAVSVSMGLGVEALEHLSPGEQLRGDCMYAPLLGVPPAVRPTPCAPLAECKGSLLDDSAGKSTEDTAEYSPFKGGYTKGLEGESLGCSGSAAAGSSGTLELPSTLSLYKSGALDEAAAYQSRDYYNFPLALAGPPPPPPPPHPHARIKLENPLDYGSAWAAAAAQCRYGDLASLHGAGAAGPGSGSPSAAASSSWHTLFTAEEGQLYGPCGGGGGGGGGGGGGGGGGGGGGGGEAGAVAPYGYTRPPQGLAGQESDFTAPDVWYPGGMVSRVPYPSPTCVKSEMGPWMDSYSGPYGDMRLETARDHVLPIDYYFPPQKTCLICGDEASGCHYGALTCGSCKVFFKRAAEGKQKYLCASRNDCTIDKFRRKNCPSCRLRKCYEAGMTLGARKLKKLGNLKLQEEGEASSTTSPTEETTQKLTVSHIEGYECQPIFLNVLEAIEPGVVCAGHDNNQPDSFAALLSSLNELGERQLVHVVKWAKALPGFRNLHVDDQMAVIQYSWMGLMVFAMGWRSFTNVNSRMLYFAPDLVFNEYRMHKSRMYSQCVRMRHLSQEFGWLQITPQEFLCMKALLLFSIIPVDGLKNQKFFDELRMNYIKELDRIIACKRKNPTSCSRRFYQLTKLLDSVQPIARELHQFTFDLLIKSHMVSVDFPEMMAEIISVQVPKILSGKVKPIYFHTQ
Test: In vitro androgen receptor antagonistic activity, DHT-induced MMTV-luciferase reporter assay in AR/CHO#3 cells
Format: cell-based
Settings: 0.3 nM DHT
Protocol: Chinese Hamster Ovary (CHO) Cells Stably Transfected with Human Androgen Receptor Gene and Mouse Mammary Tumor Virus (MMTV)-Luciferase Reporter Gene or SV40-Luciferase Gene: CHO cells were maintained in alpha-modified Eagle’s medium supplemented with 10% fetal bovine serum (FBS). The culture medium of neomycin-resistant clone cells was supplemented with 10% dextran-coated charcoal-stripped FBS (DCC-FBS) and […] of neomycin. The CHO cells were transfected at 40%–70% confluence in 10-cm petri dishes with a total of […] DNA (plasmide mammalian neow luciferase, (pMAMneoLUC)); Mouse mammary tumor virus (MMTV)-luciferase reporter plasmid and pSG5-hAR; human androgen receptor expression plasmid, or Simian vacuolating virus 40 (SV40-LUC); SV40-luciferase reporter plasmid containing neomycin resistant gene) by calcium phosphate mediated transfection. The stable transfected cells were selected in the culture medium supplemented with neomycin. The selected clone was designated as AR/CHO#3 (human AR gene and MMTV luciferase reporter gene integrated CHO cell) or SV/CHO#10 (SV-40-luciferase reporter gene integrated CHO cell), respectively.
The stable transfected AR/CHO#3 or SV/CHO#10 cells were plated onto 96-well luminoplates (Packard, Palo Alto, CA, USA) at a density of 2 × 10^4 cells/well, respectively.
Four to eight hours later, the medium was changed to a medium containing DMSO, 0.3 nM of DHT, or 0.3 nM of DHT, and the tested compound. At the end of incubation, the medium was removed and the cells were lysed with […] of lysis buffer (25 mM Tris–HCl (pH 7.8), 2 mM dithiothreitol, 2 mM 1,2-cyclo-hexanediamine-tetraacetic acid, 10% glycerol and 1% Triton X-100). Luciferase substrate (20 mM Tris–HCl (pH 7.8), 1.07 mM magnesium carbonate basic (MgCO3)4Mg(OH)2·5H2O, 2.67 mM MgSO4·7H2O, 0.1 mM ethylenediaminetetraacetic acid (EDTA), 33.3 mM dithiothreitol, 0.27 mM CoA, 0.47 mM luciferin, 0.53 mM ATP) was added, and luciferase activity was measured with a ML3000 luminometer (Dynatech Laboratories, El Paso, TX, UAS). AR antagonistic activities were calculated by the formula below: AR antagonistic activity (%) = 100 (I − X) / (I − B) (1) I: (luciferase activity of AR/CHO#3)/(luciferase activity of SV/CHO#10) in the presence of 0.3 nM of DHT, B: (luciferase activity of AR/CHO#3)/(luciferase activity of SV/CHO#10) in the presence of DMSO, X: (luciferase activity of AR/CHO#3)/(luciferase activity of SV/CHO#10) in the presence of 0.3 nM of DHT and the tested compound.
The concentration of compounds showing 50% AR antagonistic activity, or IC50 values, was obtained by nonlinear analysis using a statistical analysis system (SAS).

[1] = AR/CHO#3 cells normalised to SV/CHO#10

SMILES	IC50 [1]	IC50, in vitro androgen receptor antagonistic activity [1]	IC50, in vitro androgen receptor antagonistic activity (AR/CHO#3 cells normalised to SV/CHO#10, listed as compound 1)
Nc1ncnc2c1cnn2-c1nc2c(ccc3ccccc32)s1 [Compound 3]	37 nM	–	–
N#Cc1cnn(-c2nc3c(ccc4ccccc43)s2)c1/N=C\NN [Compound 9, 2-[3-Imidoformic hydrazido-4-cyanopyrazol-2-yl]naphthalino[1,2-d]thiazole]	75 nM	–	–
NNc1nc2c(ccc3ccccc32)s1 [Compound 1, 1-(naphtho[1,2-d]thiazol-2-yl)hydrazine]	–	Inactive	devoid from any activities; also recorded: devoid of any activity
Cc1nc2c3cnn(-c4nc5c(ccc6ccccc65)s4)c3ncn2n1 [Compound 10, 2-[6-Methyl[1,2,4]triazolo[2,3-c]pyrimidino[6,5-c]pyrazol-2-yl]naphthalino[1,2-d]thiazole]	23 nM	–	–
CCOC1SCC2NC(=O)c3cnn(-c4nc5c(ccc6ccccc65)s4)c3N21 (stereo not shown) [Compound 13, 2-[3-Ethoxy-5-dihydro-6H-7-oxo-[1,3]thiazolo[3,4-b]pyrimidino[4,5-c]pyrazol-2-yl]naphthalino[1,2-d]thiazole]	29 nM	–	–
CCOC1SCC(=O)N1c1c(C#N)cnn1-c1nc2c(ccc3ccccc32)s1 (stereo not shown) [Compound 12, 2-[3-(2-Ethoxy-4-oxo-5-dihydro-1,3-thiazol-3-yl)-4-cyanopyrazol-2-yl]-naphthalino[1,2-d]thiazole]	91 nM	–	–
N=c1c2cnn(-c3nc4c(ccc5ccccc54)s3)c2ncn1NC(=O)c1ccccc1 [Compound 11]	39 nM	–	–
N=c1sc(=S)[nH]c2c1cnn2-c1nc2c(ccc3ccccc32)s1 [Compound 6, 2-[6-Imino-3H-4-thiothiazino[4,5-c]pyrazol-2-yl]naphthalino[1,2-d]thiazole]	44 nM	–	–
N#Cc1cnn(-c2nc3c(ccc4ccccc43)s2)c1N [Compound 2, 2-[3-Amino-4-cyanopyrazol-2-yl]naphthalino[1,2-d]thiazole]	31 nM	–	–
Nc1nc(=S)[nH]c2c1cnn2-c1nc2c(ccc3ccccc32)s1 [Compound 5, 2-[6-Amino-3H-4-thiopyrimidino[4,5-c]pyrazol-2-yl]naphthalino[1,2-d]thiazole]	41 nM	–	–
CCO/C=N\c1c(C#N)cnn1-c1nc2c(ccc3ccccc32)s1 [Compound 8, 2-[3-Ethylimidoformat-4-cyanopyrazol-2-yl]naphthalino[1,2-d]thiazole]	77 nM	–	–
Nc1n[nH]c2c1cnn2-c1nc2c(ccc3ccccc32)s1 [Compound 4]	34 nM	–	–

— paper PMC4264242, “Androgen Receptor Antagonists and Anti-Prostate Cancer Activities of Some Newly Synthesized Substituted Fused Pyrazolo-, Triazolo- and Thiazolo-Pyrimidine Derivatives” (International Journal of Molecular Sciences, 2014)
